Data published in PubChem BioAssay AID540269 (Sanford-Burnham Center for Chemical Genomics, 2011).
Active and inactive are the calls of the source. The rule behind the calls is not given here.

molecular target: glucose-6-phosphate dehydrogenase-6-phosphogluconolactonase (Plasmodium falciparum 3D7); test: inhibition of P. falciparum G6PD activity – biochemical, kinetic NADPH detection, orthogonal assay, dose response (AID 540269); settings: purified PfG6PD-6PGL

Row | Structure (SMILES) | IC50
1 | Cc1ccc(C(=O)/C=C/C(=O)c2ccc(C)cc2)cc1 | > 80 µM (inactive)
2 | CC1=CC(=NOC(=O)/C=C/c2ccccc2)C=C(C)C1=O | > 80 µM (inactive)
3 | N#Cc1ccc2sn(-c3ccccc3)c(=O)c2c1 | 14.8 µM
4 | CC1=C(O)C(=O)C=C2C1=CC=C1C2(C)CCC2(C)C3CC(C)(C(=O)O)CCC3(C)CCC12C (stereo unspecified) | 45.7 µM
5 | CN1CCN(C(=S)c2ccc([N+](=O)[O-])cc2)CC1 | > 80 µM (inactive)
6 | O=S(=O)(Nc1ccc(Cl)cc1)c1ccc(N2CCOCC2)c(NC(=S)NCCN2CCOCC2)c1 | > 80 µM (inactive)
7 | CCSc1nc2cc(S(=O)(=O)N3CCOCC3)ccc2o1 | > 80 µM (inactive)
8 | CN=c1nc(-c2ccccc2)n(-c2ccccc2)s1 | 20.6 µM
9 | Cc1ccsc1/C=N\NC(=O)CC(=O)NCc1ccccc1 | > 80 µM (inactive)
10 | CCC(CO)[n+]1c(C)cc(/C=C2\Sc3ccccc3N2Cc2ccccc2)cc1C (stereo unspecified) | 24.3 µM
11 | O=C(OCC(=O)c1ccc([N+](=O)[O-])cc1)/C(=C\c1ccc(Cl)cc1)NC(=O)c1ccccc1 | > 80 µM (inactive)
12 | O=[N+]([O-])c1cccc(SSc2cccc([N+](=O)[O-])c2)c1 | 71.5 µM
13 | Cc1ccc(NNS(=O)(=O)c2ccc(C)cc2)cc1 | 36.8 µM
14 | Cc1ccc(NC(=O)c2cc(N3C(=O)C=CC3=O)ccc2Cl)cc1C | 43.5 µM
15 | COCCNC(=S)Nc1ccc(N2CCOCC2)c(S(=O)(=O)Nc2ccc(Cl)cc2)c1 | > 80 µM (inactive)
16 | O=C(O)CSc1cc(NS(=O)(=O)c2ccc(Cl)cc2)c2ccccc2c1O | 46.3 µM
17 | COc1cc(NCCCn2cnc3c(OCc4ccccc4)ncnc32)cc(OC)c1OC | > 80 µM (inactive)
18 | CC(=O)Nc1ccc2sn(-c3ccccc3)c(=O)c2c1 | 24.1 µM
19 | C(=N\Nc1nc2ccccc2[nH]1)/c1ccccn1 | > 80 µM (inactive)
20 | Nc1ccc(S(=O)(=O)c2cc(O)c3ccccc3c2O)cc1 | > 80 µM (inactive)
21 | C[C@H](CO)N1C[C@H](C)[C@@H](CN(C)C(=O)Nc2ccc(C(F)(F)F)cc2)Oc2c(cccc2N(C)C)C1=O | > 80 µM (inactive)

Row | Structure (SMILES) | IC50
22 | C[C@]12CC[C@@H]3c4cc(O)c(O)cc4CC[C@H]3[C@@H]1CC[C@@H]2O | 25 µM
23 | O=C(Nc1nnc(S(=O)(=O)N2CCCCC2)s1)c1ccc(Cl)cc1 | 25.6 µM
24 | COc1cc(NCCCn2ccc(NC(=O)OCc3ccccc3)nc2=O)cc(OC)c1OC | > 80 µM (inactive)
25 | COc1cccc2nc3cc(C)c(C)cc3nc12 | > 80 µM (inactive)
26 | CCC(C)(C)c1nnc(NC(=O)C2CCN(C(=O)c3ccco3)CC2)s1 | > 80 µM (inactive)
27 | COc1ccc(/C=C/c2nc3ccccc3n2Cc2ccc(OC)c(OC)c2)cc1 | 51.1 µM
28 | Cc1ccc(S(=O)(=O)Nc2nc(C)c(C(=O)N/N=C/c3ccccc3)s2)cc1 | 31 µM
29 | OCCN1CCN(C(=S)c2ccc(Cl)c(Cl)c2)CC1 | > 80 µM (inactive)
30 | COc1c2ccoc2c(OCC=C(C)C)c2oc(=O)ccc12 | > 80 µM (inactive)
31 | COc1ccc(CCn2c(NN=C3CCCC3)nc3c2c(=O)[nH]c(=O)n3C)cc1 | > 80 µM (inactive)
32 | CC(C)Cn1c([N+](=O)[O-])nc2c1c(=O)[nH]c(=O)n2C | > 80 µM (inactive)
33 | Cc1ccc(S(=O)(=O)SC/C=C/CSS(=O)(=O)c2ccc(C)cc2)cc1 | 73 µM
34 | COc1ccccc1N1CSC2=C(C#N)C(c3ccc(SC)cc3)CC(=O)N2C1 (stereo unspecified) | 62.6 µM
35 | CCN(CC)CCn1c2ccccc2c(=O)c2c(O)ccc(O)c21 | 33.1 µM
36 | CC(=O)Nc1ccc(S(=O)(=O)NNc2cccc(C)c2)cc1 | > 80 µM (inactive)
37 | CCOC(=O)Nc1ccc(NCc2ccc(F)cc2)nc1N | > 80 µM (inactive)
38 | Cc1cc(NC(=O)c2oc3ccccc3c2C)ccc1-n1cnnn1 | 14.9 µM
39 | Cc1ccccc1N/C(SCc1cccc(Br)c1)=C(/C#N)C(N)=O | > 80 µM (inactive)
40 | CC(NC1=CC(=O)c2cccnc2C1=O)C(O)c1ccccc1 (stereo unspecified) | 45.1 µM
41 | CSc1nnc(NC(=O)c2ccc3c(c2)OCO3)s1 | 27.1 µM
